Source: PubChem BioAssay AID206 (DTP/NCI, 2004)
Several values for one entry are separate records, joined by “and”; a condition that tells them apart may be missing. Equal values may be shown once. Inconclusive results are not listed.

Test system: nude mice, HT29 intrarenal xenograft, tumor weight T/C
Experiment: NCI In Vivo Anticancer Drug Screen. Data for tumor model HT29;CX-1 Human Adenocarcinoma (MER+) (intrarenal inoculation) in NU/NU Swiss (nude) mice
Conditions: endpoint: mean tumor weight change, higher = larger tumour
Experimental: The antitumor activity of compounds was measured in mice bearing transplantable tumors. Survival or tumor size were measured and the results are expressed as the measurement made in the treated group (T) divided by the measurement made in the vehicle treated control group (C). The tumor model used in this assay is HT29;CX-1 Human Adenocarcinoma (MER+) (intrarenal inoculation) in NU/NU Swiss (nude) mice

[1] = dose: 50.0 mg/kg/injection, schedule: Q01DX010 (sc), vehicle: saline
[2] = dose: 100.0 mg/kg/injection, schedule: Q01DX010 (sc), vehicle: saline

**Q.** What does the source list for COc1ccc(/C=C/C(=O)c2cc(C(=O)O)c(OC)cc2OC)cc1OC?
**A.** T/C (dose: 225.0 mg/kg/injection, schedule: Q04DX004 (sc), vehicle: suspension in saline): 82 % of control; T/C (dose: 450.0 mg/kg/injection, schedule: Q04DX004 (sc), vehicle: suspension in saline): 102 % of control; T/C (dose: 900.0 mg/kg/injection, schedule: Q04DX004 (sc), vehicle: suspension in saline): 88 % of control

**Q.** With c1cnc2ncncc2n1 as the compound, how does the T/C (dose: 25.0 mg/kg/injection, schedule: Q01DX010 (sc), vehicle: saline with Tween-80) read?
**A.** The T/C was 62 % of control.

**Q.** And the T/C (dose: 50.0 mg/kg/injection, schedule: Q01DX010 (sc), vehicle: saline with Tween-80)?
**A.** Its T/C is 70 % of control.

**Q.** What about the T/C (dose: 100.0 mg/kg/injection, schedule: Q01DX010 (sc), vehicle: saline with Tween-80) of the same compound?
**A.** The T/C was 28 % of control.

**Q.** What does the source list for Cc1cc(N(CCOS(C)(=O)=O)CCOS(C)(=O)=O)ccc1C=Nc1ccc(-c2nc(Cc3ccccc3)sc2C)cc1?
**A.** T/C (dose: 50.0 mg/kg/injection, schedule: Q01DX010 (sc), vehicle: Klucel (hydroxypropylcellulose) (HPC)): 92 % of control; T/C (dose: 100.0 mg/kg/injection, schedule: Q01DX010 (sc), vehicle: Klucel (hydroxypropylcellulose) (HPC)): 80 % of control; T/C (dose: 200.0 mg/kg/injection, schedule: Q01DX010 (sc), vehicle: Klucel (hydroxypropylcellulose) (HPC)): 117 % of control

**Q.** For CC1=CC(=Nc2ccc(N(CCCl)CCCl)cc2)C=C(C)C1=O, which T/C (dose: 150.0 mg/kg/injection, schedule: Q04DX004 (sc), vehicle: Klucel (hydroxypropylcellulose) (HPC)) is on record?
**A.** Its T/C is 71 % of control.

**Q.** What about the T/C (dose: 300.0 mg/kg/injection, schedule: Q04DX004 (sc), vehicle: Klucel (hydroxypropylcellulose) (HPC)) of the same compound?
**A.** The T/C was 76 % of control.

**Q.** And the T/C (dose: 600.0 mg/kg/injection, schedule: Q04DX004 (sc), vehicle: Klucel (hydroxypropylcellulose) (HPC))?
**A.** The T/C was 53 % of control.

**Q.** CSc1ncnc2c1ncn2C1OC(CO)C(O)C1O (stereo unspecified) was tested. Which T/C (dose: 37.5 mg/kg/injection, schedule: Q04DX004 (sc), vehicle: saline + alcohol) did it give?
**A.** The T/C was 74 % of control and 77 % of control and 80 % of control.

**Q.** And the T/C (dose: 125.0 mg/kg/injection, schedule: Q04DX004 (sc), vehicle: saline + alcohol)?
**A.** Its T/C is 154 % of control.

**Q.** And the T/C (dose: 175.0 mg/kg/injection, schedule: Q04DX004 (sc), vehicle: saline + alcohol)?
**A.** Its T/C is 65 % of control.

**Q.** Which results are given for COc1cc2cc3c4cc(OC)c(OC)cc4cc[n+]3c(C)c2cc1OC (tested in a mixture with another compound)?
**A.** T/C [1]: 76 % of control; T/C [2]: 68 % of control

**Q.** How did the T/C (dose: 2.5 mg/kg/injection, schedule: Q04DX004 (sc), vehicle: saline) turn out when C[PH+](C)C.C[PH+](C)C.[Au] was run?
**A.** Its T/C is 108 % of control.

**Q.** What about the T/C (dose: 20.0 mg/kg/injection, schedule: Q04DX004 (sc), vehicle: saline) of the same compound?
**A.** The T/C was 42 % of control and 65 % of control.

**Q.** For C1CNCOC1, which T/C (dose: 75.0 mg/kg/injection, schedule: Q04DX004 (sc), vehicle: saline) is on record?
**A.** The T/C was 123 % of control.

**Q.** What about the T/C (dose: 150.0 mg/kg/injection, schedule: Q04DX004 (sc), vehicle: saline) of the same compound?
**A.** Its T/C is 158 % of control.

**Q.** And the T/C (dose: 300.0 mg/kg/injection, schedule: Q04DX004 (sc), vehicle: saline)?
**A.** Its T/C is 91 % of control.

**Q.** What about the T/C (dose: 600.0 mg/kg/injection, schedule: Q04DX004 (sc), vehicle: saline) of the same compound?
**A.** The T/C was 75 % of control.

**Q.** Which T/C (dose: 4.0 mg/kg/injection, schedule: Q04DX004 (sc), vehicle: saline with Tween-80) does the source give for CCCCCc1cc(/C=C2/N=C(c3ccc[nH]3)C=C2OC)[nH]c1C here?
**A.** Its T/C is 81 % of control.

**Q.** What about the T/C (dose: 8.0 mg/kg/injection, schedule: Q04DX004 (sc), vehicle: saline with Tween-80) of the same compound?
**A.** The T/C was 68 % of control.

**Q.** What about the T/C (dose: 16.0 mg/kg/injection, schedule: Q04DX004 (sc), vehicle: saline with Tween-80) of the same compound?
**A.** Its T/C is 55 % of control and 72 % of control.

**Q.** What about the T/C (dose: 32.0 mg/kg/injection, schedule: Q04DX004 (sc), vehicle: saline with Tween-80) of the same compound?
**A.** Its T/C is 76 % of control.

**Q.** What does the source list for COc1cc2cc(c1Cl)N(C)C(=O)CC(OC(=O)C(C)C)C1(C)OC1C(C)C1CC(O)(NC(=O)O1)C(OC)/C=C/C=C(C)C2 (stereo unspecified)?
**A.** T/C (dose: 12.5 micrograms/kg/injection, schedule: Q04DX004 (sc), vehicle: saline + alcohol): 74 % of control; T/C (dose: 25.0 micrograms/kg/injection, schedule: Q04DX004 (sc), vehicle: saline + alcohol): 155 % of control; T/C (dose: 50.0 micrograms/kg/injection, schedule: Q04DX004 (sc), vehicle: saline + alcohol): 165 % of control; T/C (dose: 100.0 micrograms/kg/injection, schedule: Q04DX004 (sc), vehicle: saline + alcohol): 31 % of control; T/C (dose: 500.0 micrograms/kg/injection, schedule: Q04DX004 (sc), vehicle: saline + alcohol): 5 % of control

**Q.** For Nc1nc(F)nc2c1ncn2C1OC(COP(=O)(O)O)C(O)C1O (stereo unspecified), which T/C [1] is on record?
**A.** Its T/C is 91 % of control.

**Q.** And the T/C [2]?
**A.** Its T/C is 84 % of control.

**Q.** What about the T/C (dose: 200.0 mg/kg/injection, schedule: Q01DX010 (sc), vehicle: saline) of the same compound?
**A.** The T/C was 22 % of control.

**Q.** Which T/C (dose: 400.0 mg/kg/injection, schedule: Q04DX004 (sc), vehicle: suspension in saline) does the source give for CC(C)=CCNc1ncnc2c1ncn2C1OC(CO)C(O)C1O (stereo unspecified) here?
**A.** Its T/C is 62 % of control.
